Values of other authors in US11293915B2, “Bio-adhesive gels and methods of use” (Cornell University, priority 2014, dated 2022).

Details: DTT incorporated hydrogels, DTT concentrations up to 70 mM

In the case of O[C@H](CS)[C@H](O)CS (racemic) [DTT, dithiothreitol], the cytotoxicity is listed as “do not cause significant cytotoxicity”.
